Assay results published in the supplement of paper PMC10883282.

Key:
Experiment in all cases: relative viability vs DMSO control (72 h) (fraction); higher = more viable cells
G401 = test system: G401
In short: (§1)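 Relative viability was measured with ATPLite and expressed as percent growth, averaged across up to triplicate wells. Sarcoma cell lines had been seeded in 384-well plates to reach 80–90% confluence, dosed after 24 h, and incubated 72 h at 37 °C, 5% CO2. All data were rescaled on a scale where 1 is full and 0 is none.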

A204 = test system: A204
In short: as §1

SW1353 = test system: SW1353
In short: as §1

SK-ES-1 = test system: SK-ES-1
In short: as §1

HT1080 = test system: HT1080
In short: as §1

SW684 = test system: SW684
In short: as §1

SW982 = test system: SW982
In short: as §1

SW872 = test system: SW872
In short: as §1

RD-ES = test system: RD-ES
In short: as §1

KHOS-240S = test system: KHOS-240S
In short: as §1

KHOS-NP = test system: KHOS-NP
In short: as §1

SYO-1 = test system: SYO-1
In short: as §1

CC1(C)CC=C(c2nc(C3CC(C)(C)OC(C)(C)C3)ccc2NC(=O)c2nc(C#N)c[nH]2)CC1 [Edicotinib]
Conditions	relative viability
A204, 0.00017 µM	1.08
A204, 0.00051 µM	1.06
A204, 0.00152 µM	1.06
A204, 0.00457 µM	1.05
A204, 0.01372 µM	1.08
A204, 0.04115 µM	1.06
A204, 0.1235 µM	1.03
A204, 0.3704 µM	1.05
A204, 1.111 µM	1.04
A204, 3.333 µM	1.07
A204, 10 µM	1.08
G401, 0.00017 µM	1.02
G401, 0.00051 µM	0.99
G401, 0.00152 µM	1
G401, 0.00457 µM	1.01
G401, 0.01372 µM	1.04
G401, 0.04115 µM	0.9919
G401, 0.1235 µM	1.02
G401, 0.3704 µM	1
G401, 1.111 µM	0.952
G401, 3.333 µM	0.989
G401, 10 µM	0.929
HT1080, 0.00017 µM	1.03
HT1080, 0.00051 µM	1.07
HT1080, 0.00152 µM	1.03
HT1080, 0.00457 µM	1.041
HT1080, 0.01372 µM	1.04
HT1080, 0.04115 µM	1.03
HT1080, 0.1235 µM	1.037
HT1080, 0.3704 µM	1.021
HT1080, 1.111 µM	0.9787
HT1080, 3.333 µM	1.019
HT1080, 10 µM	0.993
KHOS-240S, 0.00017 µM	1.03
KHOS-240S, 0.00051 µM	1.01
KHOS-240S, 0.00152 µM	1.02
KHOS-240S, 0.00457 µM	1.05
KHOS-240S, 0.01372 µM	1.01
KHOS-240S, 0.04115 µM	1.05
KHOS-240S, 0.1235 µM	1.05
KHOS-240S, 0.3704 µM	1.05
KHOS-240S, 1.111 µM	1.118
KHOS-240S, 3.333 µM	1.06
KHOS-240S, 10 µM	0.841
KHOS-NP, 0.00017 µM	1.03
KHOS-NP, 0.00051 µM	1.03
KHOS-NP, 0.00152 µM	1.04
KHOS-NP, 0.00457 µM	1.04
KHOS-NP, 0.01372 µM	1.03
KHOS-NP, 0.04115 µM	1.04
KHOS-NP, 0.1235 µM	1.05
KHOS-NP, 0.3704 µM	1.04
KHOS-NP, 1.111 µM	1.05
KHOS-NP, 3.333 µM	0.996
KHOS-NP, 10 µM	0.974
RD-ES, 0.00017 µM	0.9975
RD-ES, 0.00051 µM	1.01
RD-ES, 0.00152 µM	1.02
RD-ES, 0.00457 µM	1.02
RD-ES, 0.01372 µM	1.01
RD-ES, 0.04115 µM	0.999
RD-ES, 0.1235 µM	1.021
RD-ES, 0.3704 µM	1.01
RD-ES, 1.111 µM	1.01
RD-ES, 3.333 µM	0.987
RD-ES, 10 µM	0.968
SK-ES-1, 0.00017 µM	1.04
SK-ES-1, 0.00051 µM	1.06
SK-ES-1, 0.00152 µM	1.04
SK-ES-1, 0.00457 µM	1.01
SK-ES-1, 0.01372 µM	1.04
SK-ES-1, 0.04115 µM	1.06
SK-ES-1, 0.1235 µM	1.04
SK-ES-1, 0.3704 µM	1
SK-ES-1, 1.111 µM	0.986
SK-ES-1, 3.333 µM	0.958
SK-ES-1, 10 µM	0.969
SW684, 0.00017 µM	1.13
SW684, 0.00051 µM	1.14
SW684, 0.00152 µM	1.16
SW684, 0.00457 µM	1.15
SW684, 0.01372 µM	1.13
SW684, 0.04115 µM	1.1
SW684, 0.1235 µM	1.11
SW684, 0.3704 µM	1.17
SW684, 1.111 µM	1.24
SW684, 3.333 µM	1.14
SW684, 10 µM	1.16
SW872, 0.00017 µM	1.01
SW872, 0.00051 µM	0.994
SW872, 0.00152 µM	0.992
SW872, 0.00457 µM	1
SW872, 0.01372 µM	1.01
SW872, 0.04115 µM	0.997
SW872, 0.1235 µM	1.01
SW872, 0.3704 µM	1.04
SW872, 1.111 µM	1.06
SW872, 3.333 µM	1.07
SW872, 10 µM	1.08
SW982, 0.00017 µM	1.05
SW982, 0.00051 µM	1.04
SW982, 0.00152 µM	1.07
SW982, 0.00457 µM	1.07
SW982, 0.01372 µM	1.08
SW982, 0.04115 µM	1.064
SW982, 0.1235 µM	1.05
SW982, 0.3704 µM	1.066
SW982, 1.111 µM	1.07
SW982, 3.333 µM	1.07
SW982, 10 µM	1.07
SW1353, 0.00017 µM	0.973
SW1353, 0.00051 µM	0.987
SW1353, 0.00152 µM	0.958
SW1353, 0.00457 µM	0.9936
SW1353, 0.01372 µM	0.9624
SW1353, 0.04115 µM	0.965
SW1353, 0.1235 µM	0.96
SW1353, 0.3704 µM	1.03
SW1353, 1.111 µM	1.09
SW1353, 3.333 µM	1.08
SW1353, 10 µM	1.098
SYO-1, 0.00017 µM	0.931
SYO-1, 0.00051 µM	0.925
SYO-1, 0.00152 µM	0.919
SYO-1, 0.00457 µM	0.96
SYO-1, 0.01372 µM	0.963
SYO-1, 0.04115 µM	0.94
SYO-1, 0.1235 µM	0.961
SYO-1, 0.3704 µM	1.01
SYO-1, 1.111 µM	1.03
SYO-1, 3.333 µM	0.981
SYO-1, 10 µM	1.04

O=C1NC(=O)[C@@H](c2cn3c4c(cccc24)CCC3)[C@@H]1c1c[nH]c2ccccc12 [Tivantinib]
Conditions	relative viability
A204, 0.00017 µM	1.08
A204, 0.00051 µM	1.05
A204, 0.00152 µM	1.09
A204, 0.00457 µM	1.11
A204, 0.01372 µM	1.1
A204, 0.04115 µM	1.07
A204, 0.1235 µM	1.06
A204, 0.3704 µM	1.05
A204, 1.111 µM	0.455
A204, 3.333 µM	0.439
A204, 10 µM	0.331
G401, 0.00017 µM	1
G401, 0.00051 µM	1.01
G401, 0.00152 µM	1.03
G401, 0.00457 µM	1.03
G401, 0.01372 µM	1.02
G401, 0.04115 µM	0.982
G401, 0.1235 µM	1.05
G401, 0.3704 µM	0.941
G401, 1.111 µM	0.573
G401, 3.333 µM	0.534
G401, 10 µM	0.367
HT1080, 0.00017 µM	1.047
HT1080, 0.00051 µM	1.02
HT1080, 0.00152 µM	1.03
HT1080, 0.00457 µM	1.04
HT1080, 0.01372 µM	1.01
HT1080, 0.04115 µM	1.04
HT1080, 0.1235 µM	1.03
HT1080, 0.3704 µM	1.02
HT1080, 1.111 µM	0.287
HT1080, 3.333 µM	0.128
HT1080, 10 µM	0.0702
KHOS-240S, 0.00017 µM	1.03
KHOS-240S, 0.00051 µM	1.03
KHOS-240S, 0.00152 µM	1.05
KHOS-240S, 0.00457 µM	1.04
KHOS-240S, 0.01372 µM	1.05
KHOS-240S, 0.04115 µM	1.01
KHOS-240S, 0.1235 µM	0.983
KHOS-240S, 0.3704 µM	0.791
KHOS-240S, 1.111 µM	0.271
KHOS-240S, 3.333 µM	0.25
KHOS-240S, 10 µM	0.176
KHOS-NP, 0.00017 µM	1.036
KHOS-NP, 0.00051 µM	1.04
KHOS-NP, 0.00152 µM	1.036
KHOS-NP, 0.00457 µM	1.03
KHOS-NP, 0.01372 µM	1.04
KHOS-NP, 0.04115 µM	1.04
KHOS-NP, 0.1235 µM	1.04
KHOS-NP, 0.3704 µM	1.05
KHOS-NP, 1.111 µM	0.541
KHOS-NP, 3.333 µM	0.487
KHOS-NP, 10 µM	0.374
RD-ES, 0.00017 µM	0.948
RD-ES, 0.00051 µM	0.967
RD-ES, 0.00152 µM	0.986
RD-ES, 0.00457 µM	1
RD-ES, 0.01372 µM	1
RD-ES, 0.04115 µM	1.01
RD-ES, 0.1235 µM	0.977
RD-ES, 0.3704 µM	0.94
RD-ES, 1.111 µM	0.129
RD-ES, 3.333 µM	0.071
RD-ES, 10 µM	0.0364
SK-ES-1, 0.00017 µM	1.01
SK-ES-1, 0.00051 µM	1.04
SK-ES-1, 0.00152 µM	1
SK-ES-1, 0.00457 µM	1.08
SK-ES-1, 0.01372 µM	1.03
SK-ES-1, 0.04115 µM	1.02
SK-ES-1, 0.1235 µM	0.9862
SK-ES-1, 0.3704 µM	0.645
SK-ES-1, 1.111 µM	0.0656
SK-ES-1, 3.333 µM	0.0193
SK-ES-1, 10 µM	0.0196
SW684, 0.00017 µM	1.15
SW684, 0.00051 µM	1.119
SW684, 0.00152 µM	1.16
SW684, 0.00457 µM	1.123
SW684, 0.01372 µM	1.09
SW684, 0.04115 µM	1.13
SW684, 0.1235 µM	1.1
SW684, 0.3704 µM	0.961
SW684, 1.111 µM	0.783
SW684, 3.333 µM	0.601
SW684, 10 µM	0.636
SW872, 0.00017 µM	0.993
SW872, 0.00051 µM	0.973
SW872, 0.00152 µM	1
SW872, 0.00457 µM	0.996
SW872, 0.01372 µM	0.979
SW872, 0.04115 µM	1.008
SW872, 0.1235 µM	0.967
SW872, 0.3704 µM	0.933
SW872, 1.111 µM	0.473
SW872, 3.333 µM	0.485
SW872, 10 µM	0.467
SW982, 0.00017 µM	1.05
SW982, 0.00051 µM	1.04
SW982, 0.00152 µM	1.04
SW982, 0.00457 µM	1.07
SW982, 0.01372 µM	1.06
SW982, 0.04115 µM	1.04
SW982, 0.1235 µM	1.03
SW982, 0.3704 µM	0.766
SW982, 1.111 µM	0.378
SW982, 3.333 µM	0.272
SW982, 10 µM	0.2611
SW1353, 0.00017 µM	0.982
SW1353, 0.00051 µM	0.9442
SW1353, 0.00152 µM	0.985
SW1353, 0.00457 µM	0.96
SW1353, 0.01372 µM	0.99
SW1353, 0.04115 µM	0.963
SW1353, 0.1235 µM	0.955
SW1353, 0.3704 µM	0.88
SW1353, 1.111 µM	0.666
SW1353, 3.333 µM	0.45
SW1353, 10 µM	0.453
SYO-1, 0.00017 µM	0.934
SYO-1, 0.00051 µM	0.928
SYO-1, 0.00152 µM	0.95
SYO-1, 0.00457 µM	0.924
SYO-1, 0.01372 µM	0.911
SYO-1, 0.04115 µM	0.894
SYO-1, 0.1235 µM	0.861
SYO-1, 0.3704 µM	0.716
SYO-1, 1.111 µM	0.327
SYO-1, 3.333 µM	0.271
SYO-1, 10 µM	0.28
